From ChEMBL document CHEMBL1255550, “Natural product derivatives with bactericidal activity against Gram-positive pathogens including methicillin-resistant Staphylococcus aureus and vancomycin-resistant Enterococcus faecalis” (2010) come the findings set out here.

In brackets after ≈: the same amount, converted by molar mass.

What all share (format): functional
The subject of one test is Enterococcus faecalis. Nature of the test: Antibacterial activity against vancomycin-resistant Enterococcus faecalis.
The next test deals with Bacillus anthracis. The test is described as follows: Antibacterial activity against Bacillus anthracis.
Test [1] has as its system Staphylococcus aureus. The test is described as follows: Antibacterial activity against Staphylococcus aureus.
The test system of test [2] is Bacillus subtilis. The test is described as follows: Antibacterial activity against Bacillus subtilis.
Test [3] relates to Staphylococcus aureus. Nature of the test: Antibacterial activity against methicillin-resistant Staphylococcus aureus.
Test [4] relates to Bacillus subtilis. The test is described as follows: Antibacterial activity against Bacillus subtilis assessed as reduction of bacterial viability at 2 times MIC after 30mins.

With `C[C@@H](C[C@@H]1CC[C@H]([C@@H](C)Cn2cc(-c3ccccn3)nn2)O1)OC(=O)c1ccccc1` (single isomer, unassigned), the minimal inhibitory concentration (MIC) against Enterococcus faecalis, against Bacillus anthracis, in the test on Staphylococcus aureus [1] and with Bacillus subtilis [2] was > 630 µg/mL throughout.

For `C[C@H](C[C@H]1CC[C@@H]([C@H](C)Cn2cc(-c3ccccn3)nn2)O1)OC(=O)c1ccccc1`, the MIC is 26 µg/mL (≈ 61.8 µM) against Enterococcus faecalis; 320 µg/mL (≈ 761 µM) in the test with Bacillus anthracis; 210 µg/mL (≈ 499 µM) with Staphylococcus aureus [3]; 320 µg/mL (≈ 761 µM) against Staphylococcus aureus [1]; 20 µg/mL (≈ 47.6 µM) against Bacillus subtilis [2].

In the case of `COC(=O)CCC(=O)O[C@H](C)C[C@H]1CC[C@@H]([C@H](C)Cn2cc(-c3cccc(NC(C)=O)c3)nn2)O1`, the minimal inhibitory concentration (MIC) with Enterococcus faecalis was found to be 61 µg/mL (≈ 125 µM); against Bacillus anthracis it was 180 µg/mL (≈ 370 µM); in the test on Staphylococcus aureus [3] it was 122 µg/mL (≈ 251 µM); with Staphylococcus aureus [1] it was 370 µg/mL (≈ 760 µM); in the test with Bacillus subtilis [2], 91 µg/mL (≈ 187 µM). Also, the log10cfu in the test on Bacillus subtilis [4] was >3.

For the compound `COC(=O)CCC(=O)O[C@@H](C)C[C@@H]1CC[C@H]([C@@H](C)Cn2cc(-c3cccc(NC(C)=O)c3)nn2)O1` (single isomer, unassigned), the MIC against Enterococcus faecalis, in the test with Bacillus anthracis, against Staphylococcus aureus [1] and against Bacillus subtilis [2] was > 730 µg/mL throughout.

For `Br.COC(=O)CCC(=O)OC(C)CC1CCC(C(C)Cn2cc(-c3cccc(NC(C)=O)c3)nn2)O1` (racemic), the MIC was 370 µg/mL in the test on Bacillus anthracis, 370 µg/mL with Staphylococcus aureus [1] and 180 µg/mL against Bacillus subtilis [2].

In the case of `CC(CC1CCC(C(C)Cn2cc(-c3ccccn3)nn2)O1)OC(=O)c1ccccc1` (racemic), the minimal inhibitory concentration (MIC) is 630 µg/mL (≈ 1500 µM) in the test with Bacillus anthracis, 630 µg/mL (≈ 1500 µM) in the test with Staphylococcus aureus [1] and 40 µg/mL (≈ 95.1 µM) in the test on Bacillus subtilis [2].
